Among the data in patent US6448058B1, “Methods for solid phase synthesis of mercapto compounds and derivatives, combinatorial libraries thereof and compositions obtained thereby” (Versicor, Inc., priority 1997, dated 2002) are IC50 values, retold here.

SMILES strings stand for the structures.

The assay concerns the target T1, peptide deformylase (Escherichia coli, UniProt P0A6K3).
T1 construct: made in house
Put plainly: Peptide deformylase assay (continuous / discontinuous, f-ML-pNA substrate coupled with Aeromonas aminopeptidase). Format: biochemical. The settings on record: tested as a 1:1 mixture of diastereomers; read-out: IC50 against peptide deformylase. The protocol:
The dipeptide substrate, N-formyl-methionylleucyl-p-nitroanilide (f-ML-pNA) is first deformylated by the peptide deformylase to give the corresponding dipeptide with a free amino terminus, which is a substrate for an aminopeptidase from Aeromonas proteolytica (Sigma Chemical Company). Sequential action by the aminopeptidase releases p-nitroaniline, a chromophore which can be detected spectrophotometrically. Peptide deformylase enzyme is prepared as described in Rajagopalan et al., Biochemistry (1997) 36:13910-13918. The dipeptide substrate is prepared as described in Wei and Pei (1997) Anal. Biochem. 250:29-34. Assays are carried out at 23° C. Assays are performed in polystyrene cuvettes which contain 50 mM potassium phosphate, pH 7.0, 100 μM ethylene glycol bis(b-aminoethyl ether)-N,N′-tetraacetic acid (EGTA), 0 to 200 μM peptide substrate, and 0.8 unit Aeromonas aminopeptidase. […] Reactions are monitored continuously at 405 nm in a Perkin-Elmer λ3 UV/VIS spectrophotometer, and the initial rates are calculated from the early part of the reaction progression curves (<60 s). […]
Discontinuous reactions are carried out in a buffer containing 50 mM potassium phosphate, pH 7.0, 100 μM EGTA, and 0 to 200 μM peptide substrate (total volume 250 or 500 μl). […] The amount of p-nitroaniline released is determined by measuring its absorbance at 405 nm. […]

T1 sequence (P0A6K3 whole entry): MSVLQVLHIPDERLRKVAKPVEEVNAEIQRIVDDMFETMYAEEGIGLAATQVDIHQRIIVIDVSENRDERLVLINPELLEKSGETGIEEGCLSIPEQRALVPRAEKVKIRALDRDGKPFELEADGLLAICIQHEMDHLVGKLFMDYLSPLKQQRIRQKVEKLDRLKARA

Broadly, the IC50 is the midpoint of a concentration-inhibition curve. With `CCCCC(CS)C(=O)N[C@@H](CC(C)C)C(=O)Nc1ccc([N+](=O)[O-])cc1` (mixture of isomers) [Compound 110], the IC50 was less than 10 µM.

In the case of `CCCCC(CS)C(=O)N[C@H](C(=O)N1CCC[C@H]1CO)C(C)C` (mixture of isomers) [Compound 111], the IC50 is less than 10 µM.
